Literature values, collected in publication PMC4381553, “Acute and Chronic Toxicity, Cytochrome P450 Enzyme Inhibition, and hERG Channel Blockade Studies with a Polyherbal, Ayurvedic Formulation for Inflammation” (BioMed Research International, 2015).
Read-outs that look alike come from different tables or passages of the source.

Experiments:
[1] = tested on: CYP3a; conditions: only at very high dose (200 μg/mL), human liver microsome
[2] = tested on: CYP3a; conditions: only at very high dose (200 μg/mL), rat liver microsome

CC1=C(CO)C(=O)O[C@@H]([C@@H](C)[C@H]2CC[C@H]3[C@@H]4CC=C5C[C@@H](O[C@@H]6O[C@H](CO[C@@H]7O[C@H](CO)[C@@H](O)[C@H](O)[C@H]7O)[C@@H](O)[C@H](O)[C@H]6O)C[C@H](O)[C@]5(C)[C@H]4CC[C@]23C)C1 [Withanoside IV]
inhibitory activity of CYP3a [1]: some inhibitory activity
inhibitory activity of CYP3a [2]: some inhibitory activity
